Where two headings read alike, the source gives them in different places.
Tests used:
[1] = test system: triple-negative breast cancer cells (TNBC); assay: Growth inhibition of TNBC cells; type: cell-based
From the text: (§1) FIGS. 10A & 10B show effects of TK208 against cancer cells.
TNBC is difficult to be treated and currently there are no good drugs available in the market.
(§2) In addition, another tris-benzmaide compound TK208 was synthesized and tested against breast cancer and ovarian cancer cell lines (FIGS. 10-15). […] These compounds (e.g., TK41, TK208, TK308 (FIG. 21), TK309 (FIG. 22), TK314, TK315) are extremely potent compounds that inhibit tumor growth and kill breast and ovarian cancer cells and as such, they are superb therapeutic candidates for such diseases.

ovarian cancer cells = assay: Growth inhibition of ovarian cancer cells; type: cell-based
From the text: as §1, §2

OCa cells [2] = assay: ER stress (ERS)/UPR induction in OCa cells, RT-PCR and western; type: cell-based
Experimental: FIG. 40: Time course of induction of sXBP1 and CHOP mRNA in 4 OCa cell lines—ES2, SKOV3, OVCAR3 and OVCAR4 by ERX-208. Following treatment of OCa cell lines with 100 nM ERX-208, cells were harvested at various time points and lysates subjected to RT-PCR for both CHOP and sXBP1.
FIG. 41: OCa cells were treated with ERX-208 for 16 h and the status of UPR proteins were determined using western blotting.
(§3) ERX-208. […] Functionally, ERX-208 causes growth inhibition of OCa cells, as noted by MTT assays using five established OCa cells (ES2, SKOV3, A2780, TOV21G, TOV112D) and five primary OCa cells derived from HGSOC patient ascites (AS21, AS23, AS25, AS28, AS29) (FIGS. 42B-C). […] The inventor noted an IC50 of ˜50-100 nM for ERX-208 both for inducing ERS and in reducing the growth of OCa cells.

OCa cells [3] = assay: MTT assay in OCa cells; type: cell-based
Experimental: (§4) FIGS. 12A-12D show the effect of TK208 against ovarian cancer cell lines ES2 (FIGS. 12A & 12B) and SKOV3 (FIGS. 12C & 12D).
(§5) FIGS. 42A-D: OCa cells were treated with ERX-11 (FIG. 42A) or ERX-208 (FIG. 42B). Primary OCa cells derived from ascites were treated with ERX-208 for 72 h (FIG. 42C) and cell viability by MTT assays. (FIG. 42D) Effect of ERX-208 on viability of IOSE cells was measured using MTT assays and TOV21G was used as +ve control.
as §3

[4] = test system: normal ovarian surface epithelial cells (IOSE); assay: MTT assay in IOSE cells; type: cell-based
Experimental: as §5, §3

[5] = test system: ES2 and SKOV3 ovarian cancer cells; assay: Colony formation assay; type: cell-based
Experimental: FIG. 43: ES2 and SKOV3 cells were treated with ERX-208 and its effect on cell survival was measured using colony formation assays. ****p<0.0001.
as §3

[6] = test system: ES2 and SKOV3 ovarian cancer cells; assay: Matrigel invasion chamber assay; type: cell-based
Experimental: FIG. 44: ES2 and SKOV3 cells were treated with ERX-208 and its effect on invasion was measured using Matrigel invasion chamber assays. ****p<0.0001.
as §3

OCa cells [7] = assay: Caspase-Glo 3/7 apoptosis assay; type: cell-based
Experimental: as §4
FIG. 45: ERX-208 effect on apoptosis of OCa cells was measured using Caspase-Glo® 3/7 Assays. ****p<0.0001.
as §3

[8] = test system: ES2 and SKOV3 ovarian cancer cells; assay: Cell cycle arrest; type: cell-based; settings: S phase
ES2 CDX tumors = assay: ES2 CDX tumors; type: in vivo, nude mice; settings: 15 days
Experimental: FIG. 47: ES2/GFP/LUC cells were injected i.p. and tumors established. Mice (n=5) were treated with vehicle or ERX-208 (10 mg/kg/day/i.p). Tumor volume, tumor weight, number of tumor nodules are shown. **p<0.01,****p<0.0001.
(§6) ERX-208 suppressed growth of ES2 CDX tumors. ES2 cells stably labelled with GFP/LUC reporter (2×10^5) were injected i.p. into nude mice. Following establishment of tumors, mice (n=5/group) were randomized and treated for 5 days/week with either 10 mg/kg/ip of ERX-208 or vehicle. […] ERX-208 is effective in reducing growth of HGSOC PDX tumors. Following establishment of PDX tumors, NSG mice (n=6/group) were randomized and treated for 5 days/week with either 10 mg/kg/ip of ERX-208 or vehicle.

HGSOC PDX tumors = assay: HGSOC PDX tumors; type: in vivo, NSG mice; settings: 21 days
Experimental: FIGS. 48A-F: OCa PDX (n=6) tumors were established in the flanks of NSG mice. When the tumors reached 200 mm^3, treatment with vehicle or 10 mg/kg/day/i.p. ERX-208 was initiated. (FIG. 48A) Tumor volume, (FIG. 48B) tumor weight, (FIG. 48C) tumors picture, and
(FIG. 48D) body weight is shown. (FIGS. 48E-F) IHC analysis of GRP 78 as a marker of ER stress *p<0.05; **p<0.01, ****p<0.0001.
as §6

[9] = test system: carboplatin resistant OCa cells; assay: Chemotherapy resistant OCa cells, MTT and apoptosis assay; type: cell-based
Experimental: (§7) FIGS. 49A-F: (FIGS. 49A-B) Effect of ERX-208 on chemotherapy resistant OCa cells was measured by MTT and apoptosis assay. (FIGS. 49C-F) Platinum-resistant PDX tumors were treated with vehicle or ERX-208 (10 mg/kg/day/i.p). Tumor volume (FIG. 49C), weights (FIG. 49D) tumors picture (FIG. 49E), bodyweights (FIG. 49F) are shown. ** P<0.01, ***p<0.001 ****p<0.0001.
(§8) ERX-208 is effective in reducing growth of chemotherapy resistant OCa. OCa initially responds to chemotherapy; however, majority will develop chemotherapy resistance. […] The inventors conducted a proof of principle study using a therapy resistant HGSOC PDX model received from the UTHealth OBGYN PDX core. ERX-208 treatment resulted ˜60% reduction in tumor volume (FIGS. 49C-F).

[10] = test system: therapy resistant HGSOC PDX; assay: Therapy resistant HGSOC PDX model; type: in vivo, mice; settings: 10 mg/kg/day/i.p
Experimental: as §7, §8

ovarian tumor = assay: Ovarian xenograft and PDX models of TK208; type: in vivo, mouse
Experimental: FIGS. 33A-H. FIGS. 33A-D show ovarian cancer xenografts (ES2) treated with vehicle or TK208 (ERX-208). Tumor volume (FIG. 33A), body weight (FIG. 33B) distribution of tumor weights at necropsy (FIG. 33C) and nodules (FIG. 33D) were graphed. FIGS. 33E-H show ovarian PDX tumors were treated with vehicle or TK208 (ERX-208). Tumor volume (FIG. 33E), distribution of tumor weights at necropsy (FIG. 33F) and tumor images (FIG. 33G) and body weight (FIG. 33H) were graphed.
The inventors have tested the in vivo activity of TK208 (ERX-208) using both ovarian xenograft and PDX models.

How did the IC50 [1] turn out when `CC(C)COc1cc(C(=O)Nc2ccc(C(=O)N[C@H]3CC[C@H](C(=O)Nc4cnc5ccccc5c4)CC3)cc2OCC(C)C)ccc1NC(=O)c1ccc([N+](=O)[O-])c(OCCO)c1` [TK208] was run?
Its IC50 is 10 to 100 nM.

And the IC50 (ovarian cancer cells)?
Its IC50 is 10 to 100 nM.

What about the “induction of CHOP mRNA” value (OCa cells [2]; 100 nM, within 24 h) of the same molecule?
The value was greater than 15 fold.

What about the “induction of sXBP1 mRNA” value (OCa cells [2]; 100 nM, within 24 h) of the same molecule?
Its value is greater than 10 fold.

What about the IC50 (OCa cells [2]; OCa cells, read-out: IC50 for inducing ERS) of the same molecule?
The IC50 was 50 to 100 nM.

And the “induction of UPR components at the protein level” value (OCa cells [2]; multiple OCa cell lines)?
Its value is “induce classic UPR components peIF2a, CHOP and LC3B”.

What about the “activity against OCa cells / cell viability” value (OCa cells [3]) of the same molecule?
Its value is “reduces cell viability”.

And the IC50 (OCa cells [3]; read-out: IC50 in reducing the growth of OCa cells)?
The IC50 was 50 to 100 nM.

What about the “activity in IOSE” value [4] of the same molecule?
The value was “limited activity”.

And the colony formation [5]?
The colony formation was “reduces colony formation”.

And the colony formation ([5]; listed as ERX-208)?
Its colony formation is “reduced colony formation”.

What about the invasion [6] of the same molecule?
The invasion was “reduces invasion”.

And the invasion ([6]; listed as ERX-208)?
Its invasion is “reduced”.

What about the apoptosis (OCa cells [7]) of the same molecule?
The apoptosis was “promotes apoptosis”.

What about the growth arrest [8] of the same molecule?
The growth arrest was “promotes growth arrest”.

What about the “reduction of tumor volume” value (ES2 CDX tumors; 10 mg/kg/ip 5 days/week, Xenogen-IVIS) of the same molecule?
The value was roughly 60%.

And the body weight (ES2 CDX tumors; 10 mg/kg/ip)?
The body weight was “no significant change in body weight”.

And the “reduction in tumor nodules” value (ES2 CDX tumors; 10 mg/kg/ip)?
The value was roughly 50%.

And the “reduction in tumor weight” value (ES2 CDX tumors; 10 mg/kg/ip)?
Its value is roughly 50%.

And the “reduction of tumor volume” value (HGSOC PDX tumors; 10 mg/kg/ip 5 days/week)?
The value was roughly 68%.

And the body weight (HGSOC PDX tumors; 10 mg/kg/ip)?
The body weight was “no significant changes in body weight”.

What about the “reduction in tumor weight” value (HGSOC PDX tumors; 10 mg/kg/ip) of the same molecule?
Its value is 60%.

And the “apoptosis of carboplatin resistant OCa cells” value [9]?
The value was “promoted apoptosis”.

What about the “viability of carboplatin resistant OCa cells” value [9] of the same molecule?
Its value is “significantly reduced viability”.

What about the “reduction in tumor volume” value [10] of the same molecule?
Its value is roughly 60%.

And the mouse body weight (ovarian tumor; mouse, in vivo)?
Its mouse body weight is “no effect on mouse body weight”.

And the “reduction of ovarian tumor volume” value (ovarian tumor; xenograft and PDX models)?
The value was “good efficacy”.
